The source of these data is article PMC7489893, “A small molecule inhibitor of HER3: a proof-of-concept study” (Biochemical Journal, 2020).

Read-outs that look alike come from different tables or passages of the source.

Assay [1] has as its target T1, HER3 (Homo sapiens, UniProt P21860).
T1 sequence (P21860 684-1020): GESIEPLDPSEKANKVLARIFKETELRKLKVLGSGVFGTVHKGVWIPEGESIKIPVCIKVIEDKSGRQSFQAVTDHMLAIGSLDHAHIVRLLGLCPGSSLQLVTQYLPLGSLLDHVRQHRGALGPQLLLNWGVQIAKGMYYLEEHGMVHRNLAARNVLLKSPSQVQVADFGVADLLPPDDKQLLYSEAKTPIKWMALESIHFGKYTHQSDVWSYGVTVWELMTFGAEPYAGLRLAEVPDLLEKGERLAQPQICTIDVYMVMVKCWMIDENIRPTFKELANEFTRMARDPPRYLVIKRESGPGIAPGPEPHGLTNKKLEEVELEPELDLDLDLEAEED
Put plainly: biochemical. The arrangement: gene ERBB3; HER3 kinase domain (residues G684-D1020); differential scanning fluorimetry with SYPRO Orange, shift in HER3 kinase domain Tm. On the procedure:
Thermal shift assays were performed using a QuantStudio7 Flex Real-Time PCR instrument (Applied Biosystems, ThermoFischer Scientific) scanning from 15°C to 75°C in 0.5°C increments every 30 s after an initial incubation at 15°C for 1 min. Fluorescence was measured at the end of each 30 s period with an excitation wavelength of 470 nm and an emission wavelength of 620 nm. HER3 and HER2 kinase domain recombinant proteins were diluted in 50 mM Hepes pH 7.5, 150 mM NaCl, 5% glycerol and 1 mM DTT to a concentration of 1.5 μM and then incubated with the indicated concentration of compounds in a total reaction volume of 10 μl, with a final concentration of 2.5X SYPRO Orange (ThermoFisher Scientific) as fluorescence probe. […] Hit compounds stabilising HER3 were then evaluated for their relative binding affinity in a dose–response thermal shift assay at 1, 3, 10 and 30 μM (Supplementary Figure S2C). […] The proof-of-concept compound was confirmed as a HER3 binder inducing a shift in HER3 Tm of over 3°C with the dose–response indicating an estimated IC50 of 4 μM (Figure 1D and Supplementary Table S2). Near neighbours of those 109 hits were selected and 663 new compounds were screened in duplicate for their relative potency at 1, 3, 10 and 30 μM by thermal shift assay. From those, 446 compounds passed the selection criteria, i.e. induced shift in HER3 Tm > 3°C below 10 μM (data not shown). Figure 1. A differential scanning fluorimetry (DSF) assay compound screen identifies 428 HER3-preferential binders from a 107 008 compound library. (A) Overview of the screening strategy and hit rate for each step of the screening cascade. […] ApoHER3 (HER3 kinase domain with no ligand) was used as a control for all DSF analyses (mean of ApoHER3 Tm across the plates set at ΔTm = 0°C is indicated by the dash green line) and ΔTm values were calculated for each pool of compounds tested at 30 μM each (N = 1). Cut-off values of ΔTm>3°C and ΔTm < −5°C were used to designate hits (shown as dashed pink lines). The pool of compounds containing proof-of-concept compound AC3573 is circled. Gaps indicate the rare plate failures (three plates). Compounds from these plates were retested during the deconvolution screen. (C) Correlation of shift in HER3 Tm value induced by deconvoluted pool compounds tested at 30 μM between the two repeats of deconvolution screening. AC3573 and its three pool compounds are highlighted. (D) Dose-dependent analysis of thermal shifts induced by AC3573 compound tested at 1, 3, 10 and 30 μM in the HER3 potency screen. The change in HER3 Tm value (ΔTm), compared with ApoHER3 control, is reported as mean ± SD from N = 4 independent experiments. […]

Assay [2] has as its target T1, HER3. Put plainly: DSF dose-response thermal shift; HDX-MS binding site mapping. The arrangement: gene ERBB3.
Assay [3] addresses T2, HER2 kinase domain (Homo sapiens, UniProt P04626).
T2 construct: gene ERBB2; kinase domain, ThermoFisher in vitro kinase assay
Put plainly: biochemical. The following applies: at Km for ATP; read-out: Activity against HER2, IC50. The arrangement: in vitro HER2 kinase inhibition assay at the Km for ATP (ThermoFisher). The source says: Since the readout for HER3 function in cells required HER2 activity, it was critical to confirm HER2 inactivity of these compounds.

Assay [4] addresses T3, HER2 (Homo sapiens, UniProt P04626, M706A/M712L/Q711L).
T3 construct: gene ERBB2; HER2 kinase domain (S703-G1029)
Put plainly: biochemical. The arrangement: differential scanning fluorimetry with SYPRO Orange, shift in HER2 kinase domain Tm (counter screen). Conditions: counter screen. As to the method:
Thermal shift assays were performed using a QuantStudio7 Flex Real-Time PCR instrument (Applied Biosystems, ThermoFischer Scientific) scanning from 15°C to 75°C in 0.5°C increments every 30 s after an initial incubation at 15°C for 1 min. Fluorescence was measured at the end of each 30 s period with an excitation wavelength of 470 nm and an emission wavelength of 620 nm. HER3 and HER2 kinase domain recombinant proteins were diluted in 50 mM Hepes pH 7.5, 150 mM NaCl, 5% glycerol and 1 mM DTT to a concentration of 1.5 μM and then incubated with the indicated concentration of compounds in a total reaction volume of 10 μl, with a final concentration of 2.5X SYPRO Orange (ThermoFisher Scientific) as fluorescence probe. […] We sought to identify compounds binding specifically to HER3. Since HER2 and HER3 are highly homologous EGFR family members, we took forward the 555 compounds identified as stabilising HER3, to be counter screened for HER2 binding. […] Compounds binding to HER2, i.e. inducing a shift in HER2 Tm over 2°C (3×SD) compared with the DMSO neutral control were disregarded (Supplementary Figure S2D). […] A differential scanning fluorimetry (DSF) assay compound screen identifies 428 HER3-preferential binders from a 107 008 compound library. (A) Overview of the screening strategy and hit rate for each step of the screening cascade. […] ApoHER3 (HER3 kinase domain with no ligand) was used as a control for all DSF analyses (mean of ApoHER3 Tm across the plates set at ΔTm = 0°C is indicated by the dash green line) and ΔTm values were calculated for each pool of compounds tested at 30 μM each (N = 1). Cut-off values of ΔTm>3°C and ΔTm < −5°C were used to designate hits (shown as dashed pink lines). The pool of compounds containing proof-of-concept compound AC3573 is circled. Gaps indicate the rare plate failures (three plates). Compounds from these plates were retested during the deconvolution screen. (C) Correlation of shift in HER3 Tm value induced by deconvoluted pool compounds tested at 30 μM between the two repeats of deconvolution screening. AC3573 and its three pool compounds are highlighted. (D) Dose-dependent analysis of thermal shifts induced by AC3573 compound tested at 1, 3, 10 and 30 μM in the HER3 potency screen. The change in HER3 Tm value (ΔTm), compared with ApoHER3 control, is reported as mean ± SD from N = 4 independent experiments. Representative thermal denaturation profiles of recombinant HER3 kinase domain, in the presence of 0.3% DMSO (Apo control), ATP/MgCl2 (ATP control) or AC3573 tested at 1, 3, 10 and 30 μM. (E) Dose-dependent analysis of thermal shifts induced by AC3573 compound tested at 1, 3, 10 and 30 μM in the HER2 counter screen. […]
A general note: Counterscreens check selectivity or assay interference.

The target in assay [5] is T1, HER3. Description: biochemical. The arrangement: gene ERBB3; HER3 kinase domain (residues G684-D1020); differential scanning fluorimetry with SYPRO Orange, HER3 Tm shift, single-compound deconvolution screen. The following applies: read-out: ΔTm (°C) HER3 deconvolution screen. As to the method:
Thermal shift assays were performed using a QuantStudio7 Flex Real-Time PCR instrument (Applied Biosystems, ThermoFischer Scientific) scanning from 15°C to 75°C in 0.5°C increments every 30 s after an initial incubation at 15°C for 1 min. Fluorescence was measured at the end of each 30 s period with an excitation wavelength of 470 nm and an emission wavelength of 620 nm. HER3 and HER2 kinase domain recombinant proteins were diluted in 50 mM Hepes pH 7.5, 150 mM NaCl, 5% glycerol and 1 mM DTT to a concentration of 1.5 μM and then incubated with the indicated concentration of compounds in a total reaction volume of 10 μl, with a final concentration of 2.5X SYPRO Orange (ThermoFisher Scientific) as fluorescence probe. […] Having established a robust screening platform, a total of 107 008 small molecule compounds were screened as mixtures of four compounds per well (a total of 26 752 wells) at 30 μM each in a primary library screen. […] In the second step of screening, hit pools of compounds were arrayed as individual compounds and 3119 compounds (2835 hits plus 284 compounds from failed wells from the primary screen) were assessed at 30 μM, using the same thermal shift assay settings as for the primary screen (0.3% DMSO as neutral controls reflecting the single compound use, 200 μM ATP/10 mM MgCl2 as positive controls) applying again a cut-off value of ΔTm > 3°C (Figure 1C). […]

Where [6] appears, read: read-out: ΔTm (°C) HER3 potency screen.

Turning to `NS(=O)(=O)c1cccc(Nc2cc(-c3c[nH]c4ccccc34)ncn2)c1` [AC3573], the ΔTm at 3 µM was found to be 1.27 ± 0.51 °C in assay [1] (3 uM, potency screen) and 0.48 ± 0.52 °C in assay [4] (3 uM). The shift in melting temperature (ΔTm) at 30 µM in assay [1] (30 uM, potency screen) is 3.2 ± 0.24 °C; in assay [4] (30 uM) it was 1.95 ± 0.25 °C; in assay [5], 3.65 ± 0.25 °C. Also, the ΔTm at 1 µM in assay [1] (setting [6]) was -1.34 ± 0.48 °C; in assay [4] (1 uM), -0.75 ± 0.18 °C. Also, the ΔTm at 10 µM in assay [1] (setting [6]) amounted to 3.28 ± 0.62 °C; in assay [4] (10 uM), 1.56 ± 0.26 °C. The results for the IC50 in assay [2] and in assay [3] were roughly 4 µM and greater than 10 µM, respectively.

As usually defined, the ΔTm is the shift of the melting midpoint relative to a reference. The term IC50 denotes the midpoint of a concentration-inhibition curve.
